Bounds are passed on as bounds.

For the first assay, the system named is carmine spider mite. As to the kind of experiment: bioactivity test against carmine spider mite, airbrush spray. It counts as in vivo. The settings on record: Tetranychus cinnabarinus, 72 h, 10 mg/L; contrastive test; read-out: Insecticidal activity against carmine spider mite (% ). The method in brief:
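Broadbean seedlings infested with adult mites were sprayed with compound (acetone/methanol stock diluted in 0.1% Tween 80 water) by airbrush at 0.7 kg/cm^2, 0.5 ml. Three replicates were run. Mortality was scored after 72 hrs.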
As for `Cc1ncnc(NCc2ccc(Oc3ccc(C(F)(F)F)cc3)cc2)c1Cl` [CK53, reference compound], the pest or weed control at 10 µg/mL turned out to be 12%.

Still in this assay, the particulars now being: Tetranychus cinnabarinus, 72 h, 100 mg/L; contrastive test; read-out: Insecticidal activity against carmine spider mite (% ).
For `Cc1ncnc(NCc2ccc(Oc3ccc(C(F)(F)F)cc3)cc2)c1Cl` [CK53, reference compound], the pest or weed control at 100 µg/mL came to 100%.

Still in this assay, the particulars now being: Tetranychus cinnabarinus, 72 h, 600 mg/L; contrastive test; read-out: Insecticidal activity against carmine spider mite (% ).
With `COC(=O)c1nc(Cl)nc(NC(C)c2ccc(Oc3ncc(C(F)(F)F)cc3Cl)cc2)c1Cl` (stereo not shown) [CK34, reference compound], the pest or weed control at 600 µg/mL is 0%.

Regarding `Cc1ncnc(NCc2ccc(Oc3ccc(C(F)(F)F)cc3)cc2)c1Cl` [CK53, reference compound], the pest or weed control at 600 µg/mL was 100%.

Turning to `CCc1ncnc(NC(=O)Cc2ccc(Oc3ccc(C(F)(F)F)cc3Cl)cc2)c1Cl` [CK57, reference compound], the pest or weed control at 600 µg/mL is 33%.

In the case of `Cc1nc(Cl)cc(NCCc2ccc(Oc3ccc(C(F)(F)F)cn3)cc2)n1` [CK67, reference compound], the pest or weed control at 600 µg/mL worked out at 61%.

As to `Cc1nc(Cl)cc(NCCc2ccc(Oc3ncc(C(F)(F)F)cc3Cl)cc2)n1` [CK68, reference compound], the pest or weed control at 600 µg/mL was found to be 4%.

The test system of a further assay is Green peach aphids (Myzus Persicae Sulzer). As to the kind of experiment: bioactivity test against green peach aphid, airbrush foliar spray. It counts as in vivo. The settings on record: Myzus persicae, foliar, 48 h, 10 mg/L; contrastive test; read-out: Insecticidal activity against peach aphid (%). The method in brief: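 Aphids (15-30 per cabbage leaf disc) on moist filter paper were airbrush-sprayed at 10 psi, 0.5 mL, with compound from acetone:methanol (1:1) diluted in water with 0.1% tween 80. Held at 25±1 C, 60±5% RH; survivors counted after 48 hrs to give death rates.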
Turning to `Cc1ncnc(NCc2ccc(Oc3ccc(C(F)(F)F)cc3)cc2)c1Cl` [CK53, reference compound], the pest or weed control at 10 µg/mL is 34%.

With `Cc1nc(Cl)cc(NCCc2ccc(Oc3ccc(C(F)(F)F)cn3)cc2)n1` [CK67, reference compound], the pest or weed control at 10 µg/mL came to 0%.

Staying with this assay, now noted: Myzus persicae, foliar, 48 h, 100 mg/L; contrastive test; read-out: Insecticidal activity against peach aphid (%).
For the molecule `Cc1ncnc(NCc2ccc(Oc3ccc(C(F)(F)F)cc3)cc2)c1Cl` [CK53, reference compound], the pest or weed control at 100 µg/mL came out at 66%.

Turning to `Cc1nc(Cl)cc(NCCc2ccc(Oc3ccc(C(F)(F)F)cn3)cc2)n1` [CK67, reference compound], the pest or weed control at 100 µg/mL is 54%.

Staying with this assay, now noted: Myzus persicae, foliar, 48 h, 600 mg/L; contrastive test; read-out: Insecticidal activity against peach aphid (%).
Take `COC(=O)c1nc(Cl)nc(NC(C)c2ccc(Oc3ncc(C(F)(F)F)cc3Cl)cc2)c1Cl` (stereo not shown) [CK34, reference compound]: the pest or weed control at 600 µg/mL turned out to be 65%.

For `Cc1ncnc(NCc2ccc(Oc3ccc(C(F)(F)F)cc3)cc2)c1Cl` [CK53, reference compound], the pest or weed control at 600 µg/mL was 84%.

Take `CCc1ncnc(NC(=O)Cc2ccc(Oc3ccc(C(F)(F)F)cc3Cl)cc2)c1Cl` [CK57, reference compound]: the pest or weed control at 600 µg/mL was 61%.

As to `Cc1nc(Cl)cc(NCCc2ccc(Oc3ccc(C(F)(F)F)cn3)cc2)n1` [CK67, reference compound], the pest or weed control at 600 µg/mL is 86%.

Consider `Cc1nc(Cl)cc(NCCc2ccc(Oc3ncc(C(F)(F)F)cc3Cl)cc2)n1` [CK68, reference compound], for which the pest or weed control at 600 µg/mL is 0%.

A further assay relates to armyworm. As to the kind of experiment: bioactivity test against armyworm, airbrush spray. It counts as in vivo. The settings on record: 72 h, 600 mg/L; read-out: Insecticidal activity against armyworm (%).
In the case of `COC(=O)c1nc(Cl)nc(NC(C)c2ccc(Oc3ncc(C(F)(F)F)cc3Cl)cc2)c1Cl` (stereo not shown) [CK34, reference compound], the pest or weed control at 600 µg/mL amounted to 0%.

In the case of `Cc1ncnc(NCc2ccc(Oc3ccc(C(F)(F)F)cc3)cc2)c1Cl` [CK53, reference compound], the pest or weed control at 600 µg/mL worked out at 0%.

Take `CCc1ncnc(NC(=O)Cc2ccc(Oc3ccc(C(F)(F)F)cc3Cl)cc2)c1Cl` [CK57, reference compound]: the pest or weed control at 600 µg/mL is 0%.

Regarding `Cc1nc(Cl)cc(NCCc2ccc(Oc3ccc(C(F)(F)F)cn3)cc2)n1` [CK67, reference compound], the pest or weed control at 600 µg/mL was 0%.

For the molecule `Cc1nc(Cl)cc(NCCc2ccc(Oc3ncc(C(F)(F)F)cc3Cl)cc2)n1` [CK68, reference compound], the pest or weed control at 600 µg/mL was 0%.

The next assay has as its system cucumber downy mildew. In words: protectant activity in vivo against cucumber downy mildew. As to conditions: Cucumis sativus, 168 h, read-out: control effect against cucumber downy mildew (%), 25 mg/L; protectant activity.
As for `Cc1ncnc(NCc2ccc(Oc3ccc(C(F)(F)F)cc3)cc2)c1Cl` [CK53, reference compound], the pest or weed control at 25 µg/mL stood at 60%.

In the case of `Cc1nc(Cl)cc(NCCc2ccc(Oc3ccc(C(F)(F)F)cn3)cc2)n1` [CK67, reference compound], the pest or weed control at 25 µg/mL stood at 0%.

Still in this assay, the particulars now being: Cucumis sativus, 168 h, read-out: control effect against cucumber downy mildew (%), 50 mg/L; protectant activity.
In the case of `Cc1ncnc(NCc2ccc(Oc3ccc(C(F)(F)F)cc3)cc2)c1Cl` [CK53, reference compound], the pest or weed control at 50 µg/mL was determined as 85%.

As to `Cc1nc(Cl)cc(NCCc2ccc(Oc3ccc(C(F)(F)F)cn3)cc2)n1` [CK67, reference compound], the pest or weed control at 50 µg/mL was determined as 20%.

The same assay, now with this note: Cucumis sativus, 168 h, read-out: control effect against cucumber downy mildew (%), 100 mg/L; protectant activity.
For the molecule `Cc1ncnc(NCc2ccc(Oc3ccc(C(F)(F)F)cc3)cc2)c1Cl` [CK53, reference compound], the pest or weed control at 100 µg/mL was 90%.

Consider `Cc1nc(Cl)cc(NCCc2ccc(Oc3ccc(C(F)(F)F)cn3)cc2)n1` [CK67, reference compound], for which the pest or weed control at 100 µg/mL was determined as 60%.

Still in this assay, the particulars now being: Cucumis sativus, 168 h, read-out: control effect against cucumber downy mildew (%), 400 mg/L; protectant activity.
Regarding `COC(=O)c1nc(Cl)nc(NC(C)c2ccc(Oc3ncc(C(F)(F)F)cc3Cl)cc2)c1Cl` (stereo not shown) [CK34, reference compound], the pest or weed control at 400 µg/mL was 85%.

For `Cc1ncnc(NCc2ccc(Oc3ccc(C(F)(F)F)cc3)cc2)c1Cl` [CK53, reference compound], the pest or weed control at 400 µg/mL was 100%.

For the molecule `CCc1ncnc(NC(=O)Cc2ccc(Oc3ccc(C(F)(F)F)cc3Cl)cc2)c1Cl` [CK57, reference compound], the pest or weed control at 400 µg/mL was found to be 50%.

Regarding `Cc1nc(Cl)cc(NCCc2ccc(Oc3ccc(C(F)(F)F)cn3)cc2)n1` [CK67, reference compound], the pest or weed control at 400 µg/mL was determined as 100%.

On to `Cc1nc(Cl)cc(NCCc2ccc(Oc3ncc(C(F)(F)F)cc3Cl)cc2)n1` [CK68, reference compound], for which the pest or weed control at 400 µg/mL was 0%.

The next assay relates to cucumber gray mold. As to the kind of experiment: fungicidal activity in vitro (inhibition rate) against cucumber gray mold. The format is cell-based. The settings on record: 25 ppm, in vitro; read-out: inhibition rate against cucumber gray mold.
Turning to `COC(=O)c1nc(Cl)nc(NC(C)c2ccc(Oc3ncc(C(F)(F)F)cc3Cl)cc2)c1Cl` (stereo not shown) [CK34, reference compound], the inhibition at 25 ppm came out at 0%.

`Cc1ncnc(NCc2ccc(Oc3ccc(C(F)(F)F)cc3)cc2)c1Cl` [CK53, reference compound]: the inhibition at 25 ppm stood at 0%.

For `CCc1ncnc(NC(=O)Cc2ccc(Oc3ccc(C(F)(F)F)cc3Cl)cc2)c1Cl` [CK57, reference compound], the inhibition at 25 ppm was under 50%.

In the case of `Cc1nc(Cl)cc(NCCc2ccc(Oc3ccc(C(F)(F)F)cn3)cc2)n1` [CK67, reference compound], the inhibition at 25 ppm came to 0%.

As to `Cc1nc(Cl)cc(NCCc2ccc(Oc3ncc(C(F)(F)F)cc3Cl)cc2)n1` [CK68, reference compound], the inhibition at 25 ppm worked out at 0%.

In the next assay the test system is Diamond back moth. As to the kind of experiment: insecticidal activity against diamond back moth, airbrush spray. As to conditions: 72 h, 600 mg/L. The format is in vivo. The method in brief: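 Airbrush leaf-disc spray test: both faces of 2 cm cabbage discs received 0.5 ml of test solution at 0.7 kg/cm^2. Solutions were made in acetone:methanol (1:1) and brought to concentration with 0.1% Tween 80 in water. Ten second-instar larvae per disc, triplicates, were held at 25° C and 60˜70% R.H., with mortality recorded at 72 hrs.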
In the case of `COC(=O)c1nc(Cl)nc(NC(C)c2ccc(Oc3ncc(C(F)(F)F)cc3Cl)cc2)c1Cl` (stereo not shown) [CK34, reference compound], the pest or weed control at 600 µg/mL is 0%.

`Cc1ncnc(NCc2ccc(Oc3ccc(C(F)(F)F)cc3)cc2)c1Cl` [CK53, reference compound]: the pest or weed control at 600 µg/mL was 0%.

For `CCc1ncnc(NC(=O)Cc2ccc(Oc3ccc(C(F)(F)F)cc3Cl)cc2)c1Cl` [CK57, reference compound], the pest or weed control at 600 µg/mL was 0%.

Take `Cc1nc(Cl)cc(NCCc2ccc(Oc3ccc(C(F)(F)F)cn3)cc2)n1` [CK67, reference compound]: the pest or weed control at 600 µg/mL was 14%.

On to `Cc1nc(Cl)cc(NCCc2ccc(Oc3ncc(C(F)(F)F)cc3Cl)cc2)n1` [CK68, reference compound], for which the pest or weed control at 600 µg/mL was 14%.

The subject of the next assay is corn rust. In words: protectant activity in vivo against corn rust. As to conditions: Zea mays, 168 h, read-out: control effect against corn rust (%), 400 mg/L; protectant activity.
`COC(=O)c1nc(Cl)nc(NC(C)c2ccc(Oc3ncc(C(F)(F)F)cc3Cl)cc2)c1Cl` (stereo not shown) [CK34, reference compound]: the pest or weed control at 400 µg/mL is 0%.

Turning to `Cc1ncnc(NCc2ccc(Oc3ccc(C(F)(F)F)cc3)cc2)c1Cl` [CK53, reference compound], the pest or weed control at 400 µg/mL was 0%.

For the molecule `CCc1ncnc(NC(=O)Cc2ccc(Oc3ccc(C(F)(F)F)cc3Cl)cc2)c1Cl` [CK57, reference compound], the pest or weed control at 400 µg/mL stood at 0%.

Regarding `Cc1nc(Cl)cc(NCCc2ccc(Oc3ccc(C(F)(F)F)cn3)cc2)n1` [CK67, reference compound], the pest or weed control at 400 µg/mL came to 0%.

As to `Cc1nc(Cl)cc(NCCc2ccc(Oc3ncc(C(F)(F)F)cc3Cl)cc2)n1` [CK68, reference compound], the pest or weed control at 400 µg/mL was found to be 0%.

For another assay, the system named is wheat powdery mildew. As to the kind of experiment: protectant activity in vivo against wheat powdery mildew. The settings on record: Triticum aestivum, 168 h, read-out: control effect against wheat powdery mildew (%), 6.25 mg/L; protectant activity.
Turning to `Cc1ncnc(NCc2ccc(Oc3ccc(C(F)(F)F)cc3)cc2)c1Cl` [CK53, reference compound], the pest or weed control at 6.25 µg/mL is 0%.

The assay is the same for the next values; noted with them: Triticum aestivum, 168 h, read-out: control effect against wheat powdery mildew (%), 25 mg/L; protectant activity.
As to `Cc1ncnc(NCc2ccc(Oc3ccc(C(F)(F)F)cc3)cc2)c1Cl` [CK53, reference compound], the pest or weed control at 25 µg/mL amounted to 0%.

Staying with this assay, now noted: Triticum aestivum, 168 h, read-out: control effect against wheat powdery mildew (%), 100 mg/L; protectant activity.
Take `Cc1ncnc(NCc2ccc(Oc3ccc(C(F)(F)F)cc3)cc2)c1Cl` [CK53, reference compound]: the pest or weed control at 100 µg/mL amounted to 80%.

The same assay, now with this note: Triticum aestivum, 168 h, read-out: control effect against wheat powdery mildew (%), 400 mg/L; protectant activity.
Consider `COC(=O)c1nc(Cl)nc(NC(C)c2ccc(Oc3ncc(C(F)(F)F)cc3Cl)cc2)c1Cl` (stereo not shown) [CK34, reference compound], for which the pest or weed control at 400 µg/mL came out at 0%.

Consider `Cc1ncnc(NCc2ccc(Oc3ccc(C(F)(F)F)cc3)cc2)c1Cl` [CK53, reference compound], for which the pest or weed control at 400 µg/mL turned out to be 100%.

Turning to `CCc1ncnc(NC(=O)Cc2ccc(Oc3ccc(C(F)(F)F)cc3Cl)cc2)c1Cl` [CK57, reference compound], the pest or weed control at 400 µg/mL was found to be 0%.

As to `Cc1nc(Cl)cc(NCCc2ccc(Oc3ccc(C(F)(F)F)cn3)cc2)n1` [CK67, reference compound], the pest or weed control at 400 µg/mL was found to be 0%.

Turning to `Cc1nc(Cl)cc(NCCc2ccc(Oc3ncc(C(F)(F)F)cc3Cl)cc2)n1` [CK68, reference compound], the pest or weed control at 400 µg/mL turned out to be 0%.

For the origin of these results see patent US9770026B2, “Substituted pyrimidine compound and uses thereof” (Shenyang Sinochem Agrochemicals R&D Co., Ltd., priority 2012, dated 2017).
